In ChEMBL document CHEMBL1201862, “PubChem BioAssay data set” (2004):
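Values below derive from 48-hour exposures of cells grown in 96-well plates, with endpoints linearly interpolated between the two concentrations bracketing the appropriate inhibition level. GI50 = concentration required for 50% inhibition of growth.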 Active and inactive are the calls of the source. Rule as the data show it: active = GI50 up to about 1.1 µM and inactive = higher.

What was measured:
Test in all cases: NCI-60 cell line screen, 48 h
BT-549 = system: BT-549
IGROV-1 = system: IGROV-1
HOP-92 = system: HOP-92
M14 = system: M14
786-0 = system: 786-0
OVCAR-5 = system: OVCAR-5
HL-60 = system: HL-60
ACHN = system: ACHN
OVCAR-4 = system: OVCAR-4
NCI-H23 = system: NCI-H23
UO-31 = system: UO-31
RXF 393 = system: RXF 393
NCI-H226 = system: NCI-H226
COLO 205 = system: COLO 205
UACC-257 = system: UACC-257
A498 = system: A498
SK-MEL-2 = system: SK-MEL-2
SN12C = system: SN12C
A549 = system: A549
SNB-75 = system: SNB-75

Measured: GI50

O=c1[nH]c2nccn2c(Cl)c1Br
inactive: BT-549 18.7 µM | IGROV-1 20.3 µM | HOP-92 24.7 µM | M14 16.8 µM | 786-0 86.9 µM | OVCAR-5 23.4 µM | HL-60 17.2 µM | ACHN 29.9 µM | OVCAR-4 18 µM | NCI-H23 17.9 µM | UO-31 60 µM | RXF 393 1.94 µM | NCI-H226 35.2 µM | COLO 205 18.6 µM | UACC-257 16.4 µM | A498 76 µM | SK-MEL-2 2.52 µM | SN12C 26.2 µM | A549 > 100 µM | SNB-75 33.7 µM

O=C(O)c1ccccc1C1CCCc2c1[nH]c1ccccc21 (stereo not given)
inactive: BT-549 83.6 µM | IGROV-1 31.5 µM | HOP-92 24 µM | M14 53.5 µM | 786-0 > 100 µM | OVCAR-5 > 100 µM | HL-60 33.2 µM | ACHN 58.5 µM | OVCAR-4 41.3 µM | NCI-H23 74.1 µM | UO-31 58.5 µM | RXF 393 22.3 µM | NCI-H226 > 100 µM | COLO 205 74 µM | UACC-257 69.7 µM | A498 30.2 µM | SK-MEL-2 91.6 µM | SN12C > 100 µM | A549 79.3 µM | SNB-75 12.7 µM

CC1=NNC(=O)[C@H]2[C@H]1CCC1[C@@H]2CC[C@]2(C)[C@@H](O)CC[C@@H]12 (stereo not given in full)
inactive: BT-549 > 100 µM | IGROV-1 > 100 µM | HOP-92 > 100 µM | M14 > 100 µM | 786-0 > 100 µM | OVCAR-5 > 100 µM | HL-60 > 100 µM | ACHN > 100 µM | OVCAR-4 > 100 µM | NCI-H23 > 100 µM | UO-31 > 100 µM | RXF 393 > 100 µM | NCI-H226 > 100 µM | COLO 205 > 100 µM | UACC-257 > 100 µM | A498 > 100 µM | SK-MEL-2 > 100 µM | SN12C > 100 µM | A549 > 100 µM | SNB-75 12.6 µM

CC1=C(C(=O)NNC(=O)Cc2ccccc2)CC(C(=O)NNC(=O)Cc2ccccc2)=C(C)N1
inactive: BT-549 > 100 µM | IGROV-1 > 100 µM | HOP-92 > 100 µM | M14 > 100 µM | 786-0 > 100 µM | OVCAR-5 > 100 µM | HL-60 25.5 µM | ACHN > 100 µM | OVCAR-4 > 100 µM | NCI-H23 > 100 µM | UO-31 > 100 µM | RXF 393 47.8 µM | NCI-H226 > 100 µM | COLO 205 > 100 µM | UACC-257 > 100 µM | A498 > 100 µM | SK-MEL-2 > 100 µM | SN12C > 100 µM | A549 > 100 µM | SNB-75 > 100 µM

CCSC1=N/C(=C\c2ccc(N(C)C)cc2)C(Cl)=N1
inactive: BT-549 > 100 µM | IGROV-1 > 100 µM | HOP-92 > 100 µM | M14 > 100 µM | 786-0 > 100 µM | OVCAR-5 > 100 µM | HL-60 > 100 µM | ACHN > 100 µM | OVCAR-4 > 100 µM | NCI-H23 > 100 µM | UO-31 > 100 µM | RXF 393 25.2 µM | NCI-H226 > 100 µM | COLO 205 > 100 µM | UACC-257 > 100 µM | A498 > 100 µM | SK-MEL-2 > 100 µM | SN12C > 100 µM | A549 > 100 µM | SNB-75 > 100 µM
